Tested on: MIER1
Assay: Chemoproteomic competition pulldown assay (HDAC interactor)
Format: binding
Details: iQ, SW620 lysate
Description: To identify proteins directly bound by lipoic acid, we employed a chemoproteomic competition assay. Briefly, (R/S)-LA was immobilized on sepharose beads via an amidation reaction to form an affinity matrix (abbreviated as iL; Fig. 1a). This affinity matrix can be incubated with cell lysate to pull down potential LA or LM target proteins and identify these targets via bottom-up proteomics. In a competition assay, free LA or LM were incubated with lysate at different concentrations before pulling down and quantifying target proteins. […] (Fig. 1b, see “Methods” for details). […] The lysate buffer used in this assay contains 1 mM DTT to mimic the intracellular reductive milieu and to reduce lipoic acid and LM. […] Additional competition assays performed in lung adenocarcinoma cell A549 lysate also identified HDAC1, HDAC2, and HDAC6 as targets (Supplementary Fig. 1b). Amongst the three cell lines tested, HDACs were the only confidently identified targets across the 1500–3000 proteins quantified in these assays. […] We validated the results by analogous pulldown competition assays using two other affinity matrices prepared via the immobilization of either the HDAC inhibitor Quisinostat (iQ) and an analog of the class IIa HDAC inhibitor Bürli’s 31[14] (iC)[12]. We have previously shown that these affinity matrices specifically bind to the active sites of HDACs and have used them for HDACi selectivity profiling. Indeed, binding of (R/S)-LA and (R/S)-LM to HDAC1, HDAC2, HDAC3, HDAC6, and, to a lesser extent, HDAC8 was confirmed in these assays (Supplementary Fig. 1c, d). No binding to class IIa HDACs or the recently discovered common HDAC inhibitor off-target MBLAC2 was observed (Supplementary Fig. 1e)[12]. […] This observation might reflect electrostatic repulsion between the HDAC10 active site gate-keeper glutamic acid residues[15],[16] and the terminal carboxylic acid of LA.
To assess the degree of protein depletion from lysates by the affinity matrix, a second pulldown (PDPD) with fresh beads was performed using the unbound protein fraction from the vehicle control flow through. The beads were washed (1 × 1 mL of lysis buffer without inhibitors and only 0.4% Igepal, 2 × 2 mL of lysis buffer without inhibitors and only 0.2% Igepal), and captured proteins were denatured with 8 M urea buffer, alkylated with 55 mM chloroacetamide and digested with Trypsin according to standard procedures. The resulting peptides were desalted on a C18 filter plate (Sep-Pak® tC18 µElution Plate, Waters), vacuum dried, and stored at −20 °C until LC–MSMS measurement.
For the competition assays, relative binding was calculated based on the protein intensity ratio to the DMSO control for every single inhibitor concentration. EC50 values were derived from a four-parameter log-logistic regression with variable slope (constrain: bottom > 0). The obtained EC50 values were multiplied with a protein-dependent correction factor (cf), resulting in the apparent Kd value (Kd^app). The correction factor is determined by calculating the ratio of the protein intensity of two consecutive pulldowns of the vehicle control sample[13]. Targets of the inhibitors were annotated manually according to published procedures[12],[46],[47]. […] Additionally, the number of unique peptides and MSMS counts per condition were taken into account. Positive target binding across several independent experiments performed with different cell lysates further substantiated our confidence for a true positive drug-target binding event.

Compound	relative binding vs DMSO (log10 M -3.52288)	relative binding vs DMSO (log10 M -4)	relative binding vs DMSO (log10 M -4.52288)	relative binding vs DMSO (log10 M -5)	relative binding vs DMSO (log10 M -5.52288)	relative binding vs DMSO (log10 M -6)	relative binding vs DMSO (log10 M -6.52288)	relative binding vs DMSO (log10 M -7)
O=C(O)CCCCC1CCSS1 (racemic) [(R/S)-LA, (R/S)-lipoic acid]	0.1271	0.313	0.5121	0.4151	0.7821	0.8468	1.155	0.8632
NC(=O)CCCCC1CCSS1 (racemic) [(R/S)-LM, (R/S)-lipoamide]	0.1808	0	0.3328	0.7626	0.9557	1.104	0.974	1.319
